# From article PMC7486940, “Pre-symptomatic Caspase-1 inhibitor delays cognitive decline in a mouse model of Alzheimer disease and aging” (Nature Communications, 2020)
# Legend:
# [1] = tested on: GFAP; experiment: GFAP astrogliosis (western blot, immunostaining); type: in vivo, mouse
# Protocol: (§1) VX-765 (Adooq Bioscience, Irvine, CA, USA) was dissolved 5 mg • ml^−1 in 20% cremophor in dH2O[60] (Sigma-Aldrich, ON, Canada) and administered IPWT and J20 mice received three injections per week of either 50 mg • kg^−1 VX-765 or 20% cremophor vehicle for 4 weeks between 2 and 3 months of age. Mice were longitudinally followed starting 4 weeks after the last injection [4-week washout (WO)], then every other month at 12- and 20-week WO (6 and 8 months of age, respectively). Intermediate 8- and 16-week WO periods were also looked at with a smaller number of mice. After each WO period, animals were randomly chosen, independent of behavioural performance, for sacrifice and assigned to either histological or biochemical analysis (Fig. 2a).
# Mice for immunohistochemistry were isoflurane anesthetized and perfused with ice-cold 4% paraformaldehyde in 0.1 M PBS (Sigma-Aldrich). Brains were post-fixed overnight in 10% neutral-buffered formalin (ThermoFisher Scientific, ON, Canada) and transferred to 70% ethanol for paraffin embedding and sectioning at 4 μm. Tissue slides underwent heat-induced antigen retrieval with citrate or EDTA buffer. […]
# Iba1-positive microglia were quantified using a modified version of an area-specific counting frame. […] Microglial activation level was determined based on morphological measurements[19],[41]. Aβ1-40 and GFAP immunostaining density was measured across four sections using ImageJ software (NIH, Bethesda, MD, USA). Quantification was blinded to treatment and genotype.
# (§2) Twenty to sixty micrograms of protein or 16 μl of precipitated protein from culture medium were separated on SDS-PAGE or 4–12% NuPAGE Bis-Tris gels (Invitrogen, Carlsbad, CA, USA) with MES buffer (Invitrogen) and transferred onto PVDF membranes (Bio-Rad) according to the manufacturer’s instructions. […] Protein levels were normalized to β-actin and expressed as a percentage relative to the vehicle-treated WT group, except for APP which was compared to the vehicle-treated J20 group. […]
# [2] = tested on: all other caspases; set-up: method as in PMID 30254377, PMID 17289835; settings: cited from earlier work
# [3] = tested on: IDE and Nep; experiment: IDE and Nep mRNA and protein levels; type: in vivo, mouse; settings: hippocampus
# Protocol: as §1, §2
# [4] = tested on: APP; experiment: APP expression and processing (real-time PCR, western blot) in J20 hippocampus; type: in vivo, mouse
# Protocol: as §1
# Mice for biochemical analyses were isoflurane anesthetized, sacrificed by cervical dislocation, and the hippocampus and cortex dissected out and immediately frozen on dry ice. Brain tissue was homogenized in radioimmunoprecipitation assay (RIPA) buffer (50 mM Tris-HCl pH: 7.4, 1% NP-40, 0.25% Na-deoxycholate, 150 mM NaCl, 1 mM EDTA, with protease inhibitors), and supernatants placed in Laemmli (5% 2-β mercaptoethanol with protease inhibitors).
# as §2
# RNA was extracted with Qiazol and purified using the miRNeasy mini kit (Qiagen, CA, USA). RNA quality and quantity were determined using a spectrophotometer (DS-11 FX+, DeNovix, DE, USA) and RNA was reverse transcribed using First Strand cDNA Synthesis Kit (Qiagen) following the manufacturer’s protocol. […]
# [5] = tested on: IL-1β; experiment: IL-1β and IL-18 levels (PCR, western blot, ELISA); type: in vivo, mouse
# Protocol: as §1
# Twenty to sixty micrograms of protein or 16 μl of precipitated protein from culture medium were separated on SDS-PAGE or 4–12% NuPAGE Bis-Tris gels (Invitrogen, Carlsbad, CA, USA) with MES buffer (Invitrogen) and transferred onto PVDF membranes (Bio-Rad) according to the manufacturer’s instructions. Membranes were probed with the following antibodies: 1:1000 mouse anti-Aβ1-16 (6E10) (BioLegend, CA, USA), 1:2000 rabbit anti-APP C-terminus (A8717) (Sigma-Aldrich), 1:1000 rabbit anti-neprilysin (Nep, Abcam, ON, Canada), 1:500 rabbit anti-insulin degrading enzyme (IDE, Abcam), 1:3000 rabbit anti-GFAP (Dako), 1:1000 rabbit anti-IL-1β (Abcam), 1:1000 rat anti-Caspase-1 (clone 4B4.2.1, kindly provided by Genentech, San Francisco, CA, USA) and 1:1000 mouse anti-β-actin (Sigma-Aldrich). […] Signals were visualized with the ImageQuant LAS 4000 imaging system and densitometric analyses were performed with Image Gauge analysis software 3.0 (Fujifilm USA, NY, USA). Protein extracts from three independent mice in each group were run together on each blot. Protein levels were normalized to β-actin and expressed as a percentage relative to the vehicle-treated WT group, except for APP which was compared to the vehicle-treated J20 group. Representative full blots are shown in the Source data file.
# ELISA samples were prepared in RIPA described above. RIPA-insoluble pellets were further extracted in 70% formic acid (FA) in dH2O. FA was evaporated in a speed vacuum, and the resulting pellet was solubilized in 200 mM Tris-HCl, pH 7.5. IL-1β and Aβ levels (which include Aβ38, Aβ40 and Aβ42) were measured using Meso Scale Discovery ELISA kits (Rockville, MD, USA). Standards and samples were prepared according to the manufacturer’s protocols and run in duplicate.
# Real-time PCR experiments were performed with SYBR Green Taq Mastermix (Quanta BioSciences, MD, USA) in a real-time cycler ABI 7500 Fast Block (Applied Biosystems, CA, USA). Primer sequences are described in the supplementary material. […]
# [6] = tested on: WT mice; experiment: Barnes maze, spatial learning and memory; type: in vivo, mouse
# Protocol: as §1
# Open-field and novel object recognition (NOR) were measured at all WO periods. The Barnes maze was assessed at 12- and 20-week WO. Open field: Mice were placed in an open-field chamber, composed of a plexiglass box with no ceiling and white floor, and allowed to explore for 5 min. NOR: Mice were pre-exposed to two identical objects in the open-field chamber for 5 min. Two hours after pre-exposure, mice were placed back into the chamber and exposed to one familiar object and one novel object for 5 min (test phase). Mice were exposed to a specific object only once across multiple test sessions. Barnes maze: Learning acquisition (days 1–4)—each mouse was trained to find the target and enter the escape box within 180 s. Four trials per day, ~15 min apart, were performed for 4 consecutive days. Probe (day 5)—a single, 90 s trial was performed on each mouse to measure primary latency and number of errors to reach the blocked target. Target hole location was changed between the two separate test sessions. Behavioural scoring was blinded to mouse genotype and treatment.
smiles,measurement,setting,value
"CCO[C@@H]1OC(=O)C[C@@H]1NC(=O)[C@@H]1CCCN1C(=O)[C@@H](NC(=O)c1ccc(N)c(Cl)c1)C(C)(C)C [VX-765, (S)-1-((S)-2-{[1-(4-amino-3-chloro-phenyl)-methanoyl]-amino}-3,3-dimethyl-butanoyl)-pyrrolidine-2-carboxylic acid ((2R,3S)-2-ethoxy-5-oxo-tetrahydro-furan-3-yl)-amide]",delay of GFAP astrogliosis,[1]; J20,3 months
same,immunopositive GFAP astrogliosis,[1]; J20 hippocampus and cortex,"prevented astrogliosis until 8- and 12-week WO in the hippocampus and cortex, respectively"
same,hippocampal GFAP levels (western blot),"[1]; J20 hippocampus, 4- and 20-week WO",normalized with VX-765 treatment only at 20-week WO
same,specificity to Casp1,[2],specificity to Casp1 against all other caspases
same,Nep mRNA and protein levels,[3],remained unchanged
same,IDE mRNA or protein levels,[3]; WT vs vehicle- or VX-765-treated J20,did not change between WT and vehicle- or VX-765-treated J20 mice
same,APP protein levels (anti-APP C-terminal antibody),[4]; 4- and 20-week WO,not affected
same,βCTF and αCTF levels,"[4]; 4- or 20-week WO, vehicle vs VX-765",no differences in βCTF and αCTF levels
same,human APP mRNA levels,"[4]; 4-, 12- or 20-week WO",did not alter
same,active IL-1β levels (western blot),"[5]; J20 cortex, 20-week WO",normalized with VX-765 treatment at 20-week WO
same,Il-1β mRNA,"[5]; J20 hippocampus, 16-week WO",normalized with VX-765 treatment at 16-week WO
same,cortical IL-1β levels (ELISA),"[5]; cortex, any WO",did not differ between groups at any WO
same,total protein IL-1β levels (ELISA),"[5]; hippocampus, 4-, 12-, or 20-week WO",did not differ between treatment groups
same,Barnes maze probe primary latency and primary errors,"[6]; 12-week WO, vs vehicle-treated WT",decreased primary latency and primary errors compared to vehicle-treated WT mice
same,Barnes maze probe primary latency and primary errors,[6]; 20-week WO,This effect was attenuated at 20-week WO
